The source of these data is publication PMC3397407 (Journal of Medicinal Chemistry, 2012).

Usually CLint scaled stands for the rate of metabolic loss divided by the concentration. A high value points to rapid turnover.

One data set deals with NFκB. The data set is described as follows: NFκB luciferase assay. It counts as cell-based, Human.
A short description of data set [1]: In vivo disposition and metabolites of 3 in rats after gavage. Set-up: species or system rat. Particulars: after gavage of 3.
The conditions of data set [2]: rat, gavage 40 mg/kg daily for 3 days; cited from earlier work.
Data set [3] relates to RXRE transcriptional activity (COS-1 cells transfected with pRXRE, phRXRα and pRL). Description: RXRE-luciferase reporter gene assay. The following applies: for absolute activity induced (firefly luciferase, not normalized): 24 h incubation conditions; for maximum enhancement of RXRE transcriptional activity: after 4–6 h of incubation.
A short description of data set [4]: Metabolic stability with pooled human liver microsomes.
The conditions of data set [5]: 10 µM, glutathione 10 mM, NADPH, 60 min.
Data set [6] can be described thus: Chemical stability of synthetic metabolite 4. It counts as physicochemical. Particulars: air and moisture or DMSO solution.

As to `Nc1ccc2c3c(n(CCCO)c(=O)c2c1)-c1ccccc1C3O` (centres unmarked) [Compound 8, 3-Amino-11-hydroxy-6-(3-hydroxypropyl)-6,11-dihydro-5H-indeno[1,2-c]isoquinolin-5-one], the “activity as inhibitor of NFκB, in words” value with NFκB is listed as “inhibited activity as high concentrations”. For the same compound, in data set [1], the “metabolite detected in rat liver” value was “detected in rat liver” and the “metabolite detected in rat mammary tissue” value is reported as “not in serum or mammary tissue”.
For `CNCCCn1c2c(c3ccc(N)cc3c1=O)C(O)c1ccccc1-2` (centres unmarked) [Compound 34], in the data set on NFκB, the “concentration range of NFκB inhibition, in words” value is reported as “sub-µM concentrations”.
For `NCCCn1c2c(c3ccc(N)cc3c1=O)C(=O)c1ccccc1-2` [Compound 3, 3-amino-6-(3'-aminopropyl)-5H-indeno[1,2-c]isoquinoline-5,11-(6H)dione], in data set [2], the concentration in liver was 4.3 µg/g, the “concentration in mammary gland” value was 0.3 µg/g and the concentration in serum was 800 ng/mL. In data set [3], the “RXRE Highest IR (maximum induction ratio)” value is given as 7.67±0.37; the “absolute activity induced (firefly luciferase, not normalized)” value was found to be 40.5 ± 5.4 fold; the “maximum enhancement of RXRE transcriptional activity” value was determined as 5 fold. Moreover, the RXRE induction in data set [3] (24 h incubation, 5 µM) was ~ 160 fold. In addition, the “induction ratio normalized on Renilla luciferase activity” value in data set [3] (24 h incubation, Figure 9) was “exceeded 100 fold”. Besides, the elimination rate constant in data set [4] (1 µM, 1 mg protein/mL, 60 min) is given as 0.0053. The same compound showed a CLint scaled at 1 µM in data set [4] (both, human, microsomes, pH 7.4) of 5.33 mL/min/kg. For the same compound, the “formation of glutathione conjugates (electrophilic metabolites)” value in data set [5] was “no evidence of glutathione conjugates”.
On to `CC(=O)Nc1ccc2c3c(n(CCCO)c(=O)c2c1)-c1ccccc1C3=O` [Compound 9, N-[6-(3-Hydroxypropyl)-5,11-dioxo-6,11-dihydro-5H-indeno[1,2-c]isoquinolin-3-yl]acetamide], for which, in data set [1], the “metabolite detected in rat liver” value is on record as “detected in rat liver” and the “metabolite detected in rat mammary tissue” value is recorded as “not in serum or mammary tissue”.
Turning to `CC(=O)Nc1ccc2c3c(n(CCCN)c(=O)c2c1)-c1ccccc1C3O` (centres unmarked) [Compound 6, N-[6-(3-Aminopropyl)-11-hydroxy-5-oxo-6,11-dihydro-5H-indeno[1,2-c]isoquinolin-3-yl]acetamide], in data set [1], the “metabolite observed in vivo using rats” value was “all except 6 and 10 were observed in vivo”.
`C=C(c1ccc(C(=O)O)cc1)c1cc2c(cc1C)C(C)(C)CCC2(C)C` [Compound 2, bexarotene, reference compound]: in data set [3], the “absolute activity induced (firefly luciferase, not normalized)” value is on record as 22.4 ± 3.1 fold and the “maximum enhancement of RXRE transcriptional activity” value stood at 10 fold. Moreover, the “RXRE IR” value in data set [3] (at 40 µM) is 8.85±3.89.
`Nc1ccc2c3c(n(CCCO)c(=O)c2c1)-c1ccccc1C3=O` [Compound 7, 6-(3-Hydroxypropyl)-3-amino-5H-indeno[1,2-c]isoquinoline-5,11(6H)dione]: in data set [1], the “metabolite detected in rat liver” value is listed as “detected in rat liver” and the “metabolite detected in rat mammary tissue” value is on record as “not in serum or mammary tissue”.
Regarding `CC(=O)Nc1ccc2c3c(n(CCCN)c(=O)c2c1)-c1ccccc1C3=O` [Compound 5, N-[6-(3-Aminopropyl)-5,11-dioxo-6,11-dihydro-5H-indeno[1,2-c]isoquinolin-3-yl]acetamide], in data set [1], the “metabolite detected in rat liver” value is “detected”, the “metabolite detected in rat mammary tissue” value is “not in mammary tissue” and the “metabolite detected in rat serum” value is reported as “detected”. For the same compound, the “activity as inducer of RXRE transcriptional activity, in words” value in data set [3] is listed as “moderately active at high concentrations”.
As to `CNc1ccc2c3c(n(CCCN)c(=O)c2c1)-c1ccccc1C3O` (centres unmarked) [Compound 29], the “concentration range of NFκB inhibition, in words” value in the data set with NFκB was “sub-µM concentrations”.
On to `CNc1ccc2c3c(n(CCCNC(=O)OC(C)(C)C)c(=O)c2c1)-c1ccccc1C3O` (centres unmarked) [Compound 27], for which the “concentration range of NFκB inhibition, in words” value in the data set on NFκB is listed as “sub-µM concentrations”.
`NCCCn1c2c(c3ccc(N)cc3c1=O)C(O)c1ccccc1-2` (centres unmarked) [Compound 4, 3-Amino-6-(3-aminopropyl)-11-hydroxy-6,11-dihydro-5H-indeno[1,2-c]isoquinolin-5-one]: in data set [1], the “metabolite detected in rat liver” value was “detected in rat liver” and the “metabolite detected in rat mammary tissue” value is listed as “not in serum or mammary tissue”. In addition, the chemical stability entry in data set [6] was “rather unstable and slowly oxidized back to 3”.
